Experiment: Purity and stability test (content by HPLC after sealed storage)
Type: physicochemical
Details: for Content of the intial sample: HPLC content before storage; for Content of the sample stored at 25° C. for 14 days: sealed storage at 25° C. for 14 days, content by HPLC
Procedure: The purity was detected by high performance liquid chromatography (HPLC) method. HPLC method was performed according to the method reported in Journal of Industrial Microbiology & Biotechnology (2001), 26, 216-221; the normal phase HPLC is employed:
silica gel column: 4.6 mm*250 mm;
Mobile phase: ethyl acetate:methanol:water=84:9:7 (V/V/V);
Detection wavelength: 278 nm.
The purity and stability of samples prepared in the comparative example and examples 1-4 were compared. The method is described as follows:
The samples from comparative-example, example 1, example 2, example 3 and example 4 were obtained separately and kept at 25° C. for 14 days in sealed storage. And then the contents of the samples were tested by HPLC.

| SMILES | Content of the intial sample | Content of the sample stored at 25° C. for 14 days | stability compared with crystal A and amorphous powder (25° C., 14 days, sealed storage) |
| --- | --- | --- | --- |
| CCC(C)CC(C)CCCCCCCCC(=O)NC1CC(O)[C@@H](O)NC(=O)[C@H]2[C@@H](O)CCN2C(=O)[C@H](C(O)CC(N)=O)NC(=O)C(C(O)C(O)c2ccc(O)cc2)NC(=O)[C@@H]2C[C@@H](O)CN2C(=O)[C@H](C(C)O)NC1=O (some centres unmarked) [Comparative example, reference compound] | 97.7% | 95.6% | – |
| CCC(C)CC(C)CCCCCCCCC(=O)NC1CC(O)[C@@H](O)NC(=O)[C@H]2[C@@H](O)CCN2C(=O)[C@H](C(O)CC(N)=O)NC(=O)C(C(O)C(O)c2ccc(O)cc2)NC(=O)[C@@H]2C[C@@H](O)CN2C(=O)[C@H](C(C)O)NC1=O (some centres unmarked) [Example 1] | 96.1% | 93.5% | – |
| CCC(C)CC(C)CCCCCCCCC(=O)NC1CC(O)[C@@H](O)NC(=O)[C@H]2[C@@H](O)CCN2C(=O)[C@H](C(O)CC(N)=O)NC(=O)C(C(O)C(O)c2ccc(O)cc2)NC(=O)[C@@H]2C[C@@H](O)CN2C(=O)[C@H](C(C)O)NC1=O (some centres unmarked) [Example 2] | 99.8% | 99.6% | – |

Further lines, results first:

| Content of the intial sample | Content of the sample stored at 25° C. for 14 days | stability compared with crystal A and amorphous powder (25° C., 14 days, sealed storage) | SMILES |
| --- | --- | --- | --- |
| 99.8% | 99.5% | – | CCC(C)CC(C)CCCCCCCCC(=O)NC1CC(O)[C@@H](O)NC(=O)[C@H]2[C@@H](O)CCN2C(=O)[C@H](C(O)CC(N)=O)NC(=O)C(C(O)C(O)c2ccc(O)cc2)NC(=O)[C@@H]2C[C@@H](O)CN2C(=O)[C@H](C(C)O)NC1=O (some centres unmarked) [Example 3] |
| 99.8% | 99.5% | – | CCC(C)CC(C)CCCCCCCCC(=O)NC1CC(O)[C@@H](O)NC(=O)[C@H]2[C@@H](O)CCN2C(=O)[C@H](C(O)CC(N)=O)NC(=O)C(C(O)C(O)c2ccc(O)cc2)NC(=O)[C@@H]2C[C@@H](O)CN2C(=O)[C@H](C(C)O)NC1=O (some centres unmarked) [Example 4] |
| – | – | better stability | CCC(C)CC(C)CCCCCCCCC(=O)NC1CC(O)[C@@H](O)NC(=O)[C@H]2[C@@H](O)CCN2C(=O)[C@H](C(O)CC(N)=O)NC(=O)C(C(O)C(O)c2ccc(O)cc2)NC(=O)[C@@H]2C[C@@H](O)CN2C(=O)[C@H](C(C)O)NC1=O (some centres unmarked) [crystal B of the compound of formula I] |

From patent US8969309B2, “Crystal of peptide substance as well as the preparation method and use thereof” (Shanghai Techwell Biopharmaceutical Co., Ltd., priority 2010, dated 2015)
